# Test results as given in paper PMC4854934, “Rapid Screening of Antimicrobial Synthetic Peptides” (International Journal of Peptide Research and Therapeutics, 2015).
# “Also recorded” adds a separate entry of the source. Structures can show the parent of a compound that is named as a salt. Where two headings read alike, the source gives them in different places. Where a SMILES comes first, the peptide text is derived from it. Bridges are numbered along the chain shown (N, C = ends). Roman numbers before positions name the chains, in order. Where no end group is shown, it is not given here. The star is where a group is joined. Palmitoyl = CCCCCCCCCCCCCCCC(=O)*; Myristoyl = CCCCCCCCCCCCCC(=O)*; Lauroyl = CCCCCCCCCCCC(=O)*
# Tests used:
# Format in all cases: cell-based
# [1] = test system: Bacillus subtilis ATCC 6633
# Experimental: (§1) Minimum inhibitory concentration (MIC) was determined by broth microdilution method on 96-well polypropylene plates, according to Clinical and Laboratory Standards Institute (CLSI) recommendations. All tests were conducted in triplicate and involved six reference strains of the following bacteria: Bacillus subtilis ATCC 6633, Escherichia coli ATCC 25922, Klebsiella pneumoniae ATCC 200603, Pseudomonas aeruginosa ATCC 9027, Staphylococcus aureus ATCC 25923, Staphylococcus epidermidis ATCC 14490 and two reference strains of fungi: Candida albicans ATCC 10231 and Candida tropicalis PCM 2681. Concentrations of applied peptides ranged from 512 to 1 µg/mL. Two microbiological media were used: Mueller–Hinton Broth for bacteria and Sabouraud Dextrose Broth for fungi. Incubation took 18 h at 37 °C and 48 h at 27 °C respectively. MIC was taken as the lowest concentration of a peptide where the visible growth of microbes was inhibited.
# [2] = test system: Candida albicans ATCC 10231
# Experimental: as §1
# [3] = test system: Candida tropicalis PCM 2681
# Experimental: as §1
# [4] = test system: Escherichia coli ATCC 25922
# Experimental: as §1
# [5] = test system: Klebsiella pneumoniae ATCC 200603
# Experimental: as §1
# [6] = test system: Pseudomonas aeruginosa ATCC 9027
# Experimental: as §1
# [7] = test system: Staphylococcus aureus ATCC 25923
# Experimental: as §1
# [8] = test system: Staphylococcus epidermidis ATCC 14490
# Experimental: as §1
# [9] = test system: all microorganisms tested; experiment: TLC direct bioautography (TLC-DB) with resazurin; conditions: crude peptide, bacteria 37 °C 5 h, fungi 27 °C 7 h, resazurin 4 mg/mL (0.1 % Triton X-100); for TLC-DB with separation: zones after resazurin: 4 µL of 5 mg/mL, n-butanol/acetone/acetic acid/5 % ammonia/water 4.5:1.5:1:1:2; for TLC-DB without separation: appearance of spot after resazurin: 10 µL of 5 mg/mL applied directly on TLC plate, no development
# Experimental: Direct bioautography assays to choose the most suitable and efficient stationary phase were performed on the following TLC plates: TLC Silica gel 60 RP-18 F254S (Merck), HPTLC-Platten Nano-SIL 20 UV254 (Macherey–Nagel), HPTLC Nano-ADAMANT UV254 (Macherey–Nagel) and TLC Aluminium oxide 60 F254 (Merck). The plates were sealed separately and autoclaved at 121 °C for 15 min. Peptide samples were dissolved in the solution of methanol and distilled water (75:25). 4 μL of each sample (5 mg/mL) was applied on the TLC plate. Separation was performed using a mobile phase consisting of n-butanol, acetone, acetic acid, 5 % ammonia and distilled water (4.5:1.5:1:1:2 v/v/v/v/v). Moreover, samples without separation were also investigated. In this case 10 µL of each sample was applied directly on the TLC plate and dried. All processes were performed under sterile conditions in the laminar flow cabinet. Microbiological assays were conducted using fivefold dilution of overnight culture of bacteria and a 48-h culture of fungi. After evaporation of eluents, TLC plates were sterilized under UV for 15 min and dipped into previously prepared inoculums of microorganisms for 20 s. Subsequently they were placed in a sterile Petri dish and incubated—bacteria at 37 °C for 5 h and fungi at 27 °C for 7 h. To visualize the growth inhibition zones, the plates were sprayed with 4 mg/mL (0.1 % Triton X-100) of a cell viability reagent, resazurin salt solution (Sigma-Aldrich).
# To determine the usefulness of the TLC layer material, preliminary separation experiments were carried out. […] RP-18 layer’s stability was affected by TLC-bioautography procedures, resulting in material disruption. On the other hand, aluminum oxide layer was stable enough, however it gave low quality separation. Therefore, Nano-Sil and Nano-ADAMANT layers were chosen as the most suitable for TLC-DB of synthetic antimicrobial peptides. Mobile phase consisting of n-butanol, acetone, acetic acid, 5 % ammonia and distilled water (4.5:1.5:1:1:2 v/v/v/v/v) provided the best separation of tested compounds. Moreover, the influence of TFA content among crude peptides was also investigated. In this case all tested compounds were lyophilized from 0.1 mM HCl for three times before application on TLC plate in order to exchange the TFA to chloride counter ion. Nevertheless, the obtained results were the same. Assays with (Fig. 1) and without separation (Fig. 2) were performed simultaneously. Growing microorganisms that adhered to the surface of the TLC plate reduced the dye to pink resorufin. […] The Rf values of non-viable cell area were the same for purified compounds.
# [10] = test system: all the tested species of bacteria and fungi; experiment: Broth microdilution, summary over all strains; conditions: summary of Tables 1, 2
# Experimental: as §1
# [11] = broth microdilution, 96-well polypropylene plates, Mueller-Hinton Broth, 18 h at 37 °C, peptide 512 to 1 µg/mL, triplicate, visible growth
# [12] = broth microdilution, 96-well polypropylene plates, Sabouraud Dextrose Broth, 48 h at 27 °C, peptide 512 to 1 µg/mL, triplicate, visible growth
Compound,"MIC against B. subtilis ATCC 6633 [1, 11]","MIC against C. albicans ATCC 10231 [2, 12]","MIC against C. tropicalis PCM 2681 [3, 12]","MIC against E. coli ATCC 25922 [4, 11]","MIC against K. pneumoniae ATCC 200603 [5, 11]","MIC against P. aeruginosa ATCC 9027 [6, 11]","MIC against S. aureus ATCC 25923 [7, 11]","MIC against S. epidermidis ATCC 14490 [8, 11]",TLC-DB with separation: zones after resazurin [9],TLC-DB without separation: appearance of spot after resazurin [9],antimicrobial activity among all the tested species of bacteria and fungi [10],"MIC against B. subtilis ATCC 6633 ([1]; ATCC 6633, 18 h)","MIC against C. albicans ATCC 10231 ([2]; ATCC 10231, 48 h)","MIC against C. tropicalis PCM 2681 ([3]; PCM 2681, 48 h)","MIC against E. coli ATCC 25922 ([4]; ATCC 25922, 18 h)","MIC against K. pneumoniae ATCC 200603 ([5]; ATCC 200603, 18 h)","MIC against P. aeruginosa ATCC 9027 ([6]; ATCC 9027, 18 h)","MIC against S. aureus ATCC 25923 ([7]; ATCC 25923, 18 h)","MIC against S. epidermidis ATCC 14490 ([8]; ATCC 14490, 18 h)"
CC[C@H](C)[C@H](N)C(=O)N[C@@H](CS)C(=O)N[C@@H](Cc1c[nH]cn1)C(=O)N[C@@H](Cc1c[nH]cn1)C(=O)N[C@@H](CS)C(=O)N[C@H](C(=O)O)[C@@H](C)CC [ICHHCI-OH] (H-ICHHCI-OH; N-terminus assumed),>512 µg/mL,>512 µg/mL,>512 µg/mL,>512 µg/mL,>512 µg/mL,>512 µg/mL,>512 µg/mL,>512 µg/mL,white reduction zone; also recorded: white inhibition zone,soft white inhibition zone,no antimicrobial activity,,,,,,,,
CCCCCCCCCCCCCCCC(=O)N[C@@H](CCCCNC(=O)C(F)(F)F)C(=O)N[C@@H](CCCCNC(=O)C(F)(F)F)C(N)=O [Pal-K(TFA)K(TFA)-NH2],,,,,,,,,,,no antimicrobial activity,>512 µg/mL,>512 µg/mL,>512 µg/mL,>512 µg/mL,>512 µg/mL,>512 µg/mL,>512 µg/mL,>512 µg/mL
CCCCCCCCCCCCCCCC(=O)N[C@@H](CCCCN)C(=O)NCC(=O)N[C@@H](CCCCN)C(N)=O [Pal-KGK-NH2] (Palmitoyl-Lys-Gly-Lys-NH2),,,,,,,,,,did not reduce resazurin,,2 µg/mL,64 µg/mL,>512 µg/mL,8 µg/mL,16 µg/mL,64 µg/mL,16 µg/mL,4 µg/mL
CCCCCCCCCCCCCCCC(=O)N[C@@H](CCCCN)C(=O)N[C@@H](CCCCN)C(N)=O [Pal-KK-NH2],,,,,,,,,,did not reduce resazurin,,2 µg/mL,128 µg/mL,128 µg/mL,8 µg/mL,16 µg/mL,128 µg/mL,8 µg/mL,4 µg/mL
QQRFEWEFEQQ-NH2 [p11],>512 µg/mL,>512 µg/mL,>512 µg/mL,>512 µg/mL,>512 µg/mL,>512 µg/mL,>512 µg/mL,>512 µg/mL,,,,,,,,,,,
GLFDVIKKVASVIGGL-NH2 [Citropin 1.1],,,,,,,,,,,,4 µg/mL,128 µg/mL,128 µg/mL,32 µg/mL,128 µg/mL,256 µg/mL,16 µg/mL,8 µg/mL
KWKLFKKIGAVLKVL-NH2 [CAMEL],2 µg/mL,128 µg/mL,256 µg/mL,2 µg/mL,2 µg/mL,256 µg/mL,4 µg/mL,1 µg/mL,,,,,,,,,,,
CCCCCCCCCCCC(=O)N[C@@H](CSSC[C@H](NC(=O)CCCCCCCCCCC)C(=O)N[C@@H](CCCCN)C(=O)N[C@@H](CCCCN)C(N)=O)C(=O)N[C@@H](CCCCN)C(=O)N[C@@H](CCCCN)C(N)=O [Laur-CKK-NH2 dimer] (I: Lauroyl-Cys-Lys-Lys-NH2 / II: Lauroyl-Cys-Lys-Lys-NH2; disulfide I:1-II:1),,,,,,,,,two blue spots; also recorded: two inhibition zones,did not reduce resazurin,,2 µg/mL,512 µg/mL,>512 µg/mL,8 µg/mL,8 µg/mL,512 µg/mL,8 µg/mL,2 µg/mL
CCCCCCCCCCCCCC(=O)N[C@@H](CCCCN)C(=O)NCC(=O)N[C@@H](CCCCN)C(N)=O [Mir-KGK-NH2] (Myristoyl-Lys-Gly-Lys-NH2),,,,,,,,,,did not reduce resazurin,,2 µg/mL,128 µg/mL,256 µg/mL,64 µg/mL,128 µg/mL,>512 µg/mL,16 µg/mL,4 µg/mL
